Measurements from patent publication US11298422B2, “Treating tumors with TTFields and an aurora kinase inhibitor” (Novocure Limited, priority 2018, dated 2022).
Like-named read-outs stand apart in the source and are kept apart here.

Experiments:
[1] = system: U87-MG; experiment: Cytotoxicity assay (cell count at end of treatment), U87-MG; format: cell-based, human; conditions: for cytotoxic effect, Observed TTFields + AZD1152 / cytotoxic effect, AZD1152: 72 h; for cytotoxic effect, Observed TTFields + AZD1152: percentage of control; for cytotoxic effect, Expected: expected value for the combination; for cytotoxic effect, AZD1152: number of cells as percentage of control
Description: (§1) The effects of the combined treatment of TTFields and the Aurora B kinase inhibitor AZD1152 was tested in 3 different glioma cell lines: U87-MG, U87-MG^shp53 and U-251. TTFields ([…], 200 kHz) were applied for 72 hours using the Inovitro system. AZD1152 was added to the media in concentrations of up to 100 nmol/L. Cell counts, cell cycle, and clonogenic potential were determined at the end of treatment. Formation of multinuclear cells was determined using microscopic images of cells stained with crystal violet.
(§2) The effects of the combined treatment of TTFields and AZD1152 was tested using the following human glioma cell lines: U87-MG (ATCC), U-251 (ECACC) and U87-mG^shp53 (provided by Dr. Achim Temme). All cells were grown in a humidified incubator supplied with 5% CO2. Cells were maintained in EMEM, supplemented with 10% FBS, 2 mmol/L glutamine, Pen-Strep solution (100 units/ml Penicillin and 0.1 mg/ml Streptomycin), 1 mmol/L sodium pyruvate and 1% NEAA. U87-MG^shp53 cells were maintained under selection with […] geneticin. AZD1152 was obtained from Sigma, Israel.
(§3) TTFields (1.6 V/cm RMS, 200 kHz) were applied for 72 hours using the Inovitro system. At the end of treatment, inhibition of tumor cell growth was analyzed quantitatively based on cell count. Clonogenic survival of U87-MG, U87-MG^shp53 and U-251 was tested by plating triplicates of 300 cells/dish in 6 wells dishes. After 2-3 weeks, cells were stained with crystal violet and the number of clones was quantified. Overall effect was calculated by multiplying the percentage of surviving cells at the end of treatment with the percentage of colonies formed vs. control.

[2] = system: U87-MG^shp53; experiment: Cytotoxicity assay (cell count at end of treatment), U87-MG^shp53; format: cell-based, human; conditions: for cytotoxic effect, Observed TTFields + AZD1152 / cytotoxic effect, AZD1152: 72 h; for cytotoxic effect, Observed TTFields + AZD1152: percentage of control; for cytotoxic effect, Expected: expected value for the combination; for cytotoxic effect, AZD1152: number of cells as percentage of control
Description: as §1, §2, §3

[3] = system: U87-MG^shp53; experiment: Overall effect (surviving cells x colonies formed vs. control), U87-MG^shp53; format: cell-based, human; conditions: for dosage required to achieve an overall effect of 38%: U87-MG^shp53 (FIG. 1D); for overall effect, Observed TTFields + AZD1152 / overall effect, AZD1152: 72 h; for overall effect, Expected: expected value for the combination; for overall effect, AZD1152: surviving cells x colonies vs. control
Description: as §1, §2, §3

[4] = system: U-251; experiment: Overall effect based on the clonogenic assay, U-251; format: cell-based, human; conditions: for overall effect, Observed TTFields + AZD1152 / overall effect, AZD1152: 72 h; for overall effect, Observed TTFields + AZD1152: clonogenic assay; for overall effect, Expected: expected value for the combination; for overall effect, AZD1152: based on the clonogenic assay
Description: as §1, §2, §3
The overall effect for U-251 cells was determined based on the clonogenic assay. Response to TTFields application alone led to about 50% reduction in the clonogenic potential of U-251 cells (FIG. 1E).

[5] = system: U87-MG^shp53; experiment: Flow cytometry analysis of DNA contents (ploidy), U87-MG^shp53; format: cell-based, human; conditions: 72 h
Description: For cell cycle analysis, cells were removed with Trypsin immediately after 72 h treatment, washed twice with ice-cold PBS with 1% FBS and fixed with 70% ice-cold ethanol for 30 min. After fixation, cells were washed twice with ice-cold PBS with 1% FBS, pelleted and incubated in PBS containing 10 μg/ml RNase and 7.5 μg/ml7-AAD (Sigma-Aldrich) at 37° C. for 30 min. Cell cycle distribution was then quantified using the EC800 flow cytometer (Sony Biotechnology, Japan).
FIGS. 3A-D and 4A-E show U87-MG and U87-MG^shp53 FACS analysis of DNA contents following treatment with TTFields and AZD1152. More specifically, FIGS. 3A-D depict increased polyploidy in U87-MG cells following the combined treatment of TTFields (200 kHz, 1.6 V/cm RMS) at various AZD1152 concentrations; and FIGS. 4A-E depict increased polyploidy in U87-MG^shp53 cells following the combined treatment of TTFields (200 kHz, 1.6 V/cm RMS) at various AZD1152 concentrations.
Tables 1 and 2 depict, for U87-MG and U87-MG^shp53 respectively, numeric data corresponding to FIGS. 3 and 4. The columns in tables 1 and 2 represent the DNA copy number (e.g., 2n is the normal number of chromosomes (23 pairs=46), 4n is twice the number of chromosomes, etc.).

[6] = patients with advanced solid tumors, cited from earlier work
[7] = U87-MG^shp53, AZD1152 25 nM + TTFields 200 kHz 1.6 V/cm RMS
[8] = U87-MG^shp53, AZD1152 25 nM + TTFields
[9] = U87-MG^shp53, AZD1152 25 nM alone
[10] = U87-MG^shp53, AZD1152 50 nM + TTFields 200 kHz 1.6 V/cm RMS
[11] = U87-MG^shp53, AZD1152 50 nM + TTFields
[12] = U87-MG^shp53, AZD1152 50 nM alone
[13] = U87-MG^shp53, AZD1152 100 nM + TTFields 200 kHz 1.6 V/cm RMS
[14] = U87-MG^shp53, AZD1152 100 nM + TTFields
[15] = U87-MG^shp53, AZD1152 100 nM alone
[16] = U87-MGShp53, AZD1152 12.5 nM + TTFIELDS 200 kHz 1.6 V/cm RMS
[17] = U87-MGShp53, AZD1152 12.5 nM, CONTROL (no TTFields)
[18] = U87-MGShp53, AZD1152 25 nM + TTFIELDS 200 kHz 1.6 V/cm RMS
[19] = U87-MGShp53, AZD1152 25 nM, CONTROL (no TTFields)
[20] = U87-MGShp53, AZD1152 50 nM + TTFIELDS 200 kHz 1.6 V/cm RMS
[21] = U87-MGShp53, AZD1152 50 nM, CONTROL (no TTFields)

## CCN(CCCOc1ccc2c(Nc3cc(CC(=O)Nc4cccc(F)c4)n[nH]3)ncnc2c1)CCOP(=O)(O)O [AZD1152, Barasertib]
[1]; AZD1152 25 nM + TTFields 200 kHz 1.6 V/cm RMS
  cytotoxic effect, Observed TTFields + AZD1152: 13.5%
[1]; AZD1152 25 nM + TTFields
  cytotoxic effect, Expected: 23.5%
[1]; AZD1152 25 nM alone
  cytotoxic effect, AZD1152: 46%
[1]; AZD1152 50 nM + TTFields 200 kHz 1.6 V/cm RMS
  cytotoxic effect, Observed TTFields + AZD1152: 8.5%
[1]; AZD1152 50 nM + TTFields
  cytotoxic effect, Expected: 13.0%
[1]; AZD1152 50 nM alone
  cytotoxic effect, AZD1152: 25.5%
[1]; AZD1152 100 nM + TTFields 200 kHz 1.6 V/cm RMS
  cytotoxic effect, Observed TTFields + AZD1152: 4.0%
[1]; AZD1152 100 nM + TTFields
  cytotoxic effect, Expected: 4.8%
[1]; AZD1152 100 nM alone
  cytotoxic effect, AZD1152: 9.5%
[1]; TTFields 200 kHz 1.6 V/cm RMS 72 hours, 2-way ANOVA, p<0.001
  cytotoxic effect of combined treatment of TTFields and AZD1152: significant enhancement of the cytotoxic effect
[2]; Homo sapiens, U87-MG^shp53, AZD1152 alone, 72 hours
  IC50: ~50 nM
[2]; [7]
  cytotoxic effect, Observed TTFields + AZD1152: 22.5%
[2]; [8]
  cytotoxic effect, Expected: 42.2%
[2]; [9]
  cytotoxic effect, AZD1152: 71%
[2]; [10]
  cytotoxic effect, Observed TTFields + AZD1152: 10.5%
[2]; [11]
  cytotoxic effect, Expected: 27.7%
[2]; [12]
  cytotoxic effect, AZD1152: 46.5%
[2]; [13]
  cytotoxic effect, Observed TTFields + AZD1152: 4.5%
[2]; [14]
  cytotoxic effect, Expected: 8.9%
[2]; [15]
  cytotoxic effect, AZD1152: 15%
[2]; U87-MG^shp53, 2-way ANOVA, p<0.001
  cytotoxic effect of combined treatment of TTFields and AZD1152: significant enhancement of the cytotoxic effect
[3]; combined with TTFields
  dosage required to achieve an overall effect of 38%: 25 nM
[3]; in the absence of TTFields
  dosage required to achieve an overall effect of 38%: 70 nM
[3]; [7]
  overall effect, Observed TTFields + AZD1152: 39.0%
[3]; [8]
  overall effect, Expected: 51.0%
[3]; [9]
  overall effect, AZD1152: 79%
[3]; [10]
  overall effect, Observed TTFields + AZD1152: 13.0%
[3]; [11]
  overall effect, Expected: 33.9%
[3]; [12]
  overall effect, AZD1152: 52.5%
[3]; [13]
  overall effect, Observed TTFields + AZD1152: 2.5%
[3]; [14]
  overall effect, Expected: 7.1%
[3]; [15]
  overall effect, AZD1152: 11%
[3]; with respect to the dosage giving the same overall effect in the absence of an alternating electric field, 'can often be'
  reduction of dosage required for a given level of overall effect when combined with TTFields: at least 50%
[4]; U-251, AZD1152 6.25 nM + TTFields 200 kHz 1.6 V/cm RMS
  overall effect, Observed TTFields + AZD1152: 8.0%
[4]; U-251, AZD1152 6.25 nM + TTFields
  overall effect, Expected: 40.7%
[4]; U-251, AZD1152 6.25 nM alone
  overall effect, AZD1152: 74%
[4]; U-251, AZD1152 12.5 nM + TTFields 200 kHz 1.6 V/cm RMS
  overall effect, Observed TTFields + AZD1152: 0.7%
[4]; U-251, AZD1152 12.5 nM + TTFields
  overall effect, Expected: 8.3%
[4]; U-251, AZD1152 12.5 nM alone
  overall effect, AZD1152: 15%
[4]; U-251, AZD1152 25 nM + TTFields 200 kHz 1.6 V/cm RMS
  overall effect, Observed TTFields + AZD1152: 0.2%
[4]; U-251, AZD1152 25 nM + TTFields
  overall effect, Expected: 1.1%
[4]; U-251, AZD1152 25 nM alone
  overall effect, AZD1152: 2%
[4]; U-251, AZD1152 50 nM + TTFields 200 kHz 1.6 V/cm RMS
  overall effect, Observed TTFields + AZD1152: 0.2%
[4]; U-251, AZD1152 50 nM + TTFields
  overall effect, Expected: 1.1%
[4]; U-251, AZD1152 50 nM alone
  overall effect, AZD1152: 2%
[4]; U-251, AZD1152 100 nM + TTFields 200 kHz 1.6 V/cm RMS
  overall effect, Observed TTFields + AZD1152: 0.2%
[4]; U-251, AZD1152 100 nM + TTFields
  overall effect, Expected: 0.8%
[4]; U-251, AZD1152 100 nM alone
  overall effect, AZD1152: 1.5%
[5]; [16]
  DNA copy number 2n: 44%
  DNA copy number 4n: 34%
  DNA copy number 8n: 19%
[5]; [17]
  DNA copy number 2n: 46%
  DNA copy number 4n: 29%
  DNA copy number 8n: 6%
  DNA copy number 16n: 1%
  DNA copy number 32n: 0%
[5]; [18]
  DNA copy number 2n: 10%
  DNA copy number 4n: 36%
  DNA copy number 8n: 29%
[5]; [19]
  DNA copy number 2n: 48%
  DNA copy number 4n: 25%
  DNA copy number 8n: 6%
  DNA copy number 16n: 1%
  DNA copy number 32n: 0%
[5]; [20]
  DNA copy number 2n: 2%
  DNA copy number 4n: 21%
  DNA copy number 8n: 38%
[5]; [21]
  DNA copy number 2n: 40%
  DNA copy number 4n: 33%
  DNA copy number 8n: 11%
  DNA copy number 16n: 3%
  DNA copy number 32n: 0%
[6]; administered as two 2-h infusions (110 mg/day, days 1, 2, 15 and 16)
  maximum tolerated AZD1152 dose: 220 mg
[6]; as a 48-h continuous infusion
  maximum tolerated AZD1152 dose: 150 mg
